{"source": "patent US20060172945A1", "about": "“Human neutrophil alpha-defensin 4 inhibition of HIV-1” (priority 2005, published 2006)", "tested_on": "HIV-1 isolates IIIB (X4), BaL (R5), B703 (X4), NSI03 (R5) in PBMC", "assay": "Inhibition of HIV-1 replication in PBMC, HIV-1 p24 antigen-capture ELISA", "format": "cell-based", "conditions": "HIV-1 infected human PBMC in vitro, p24 at day 4; HNP4 compared with HNPs 1-3", "procedure": "Inhibition of HIV-1 in vitro by α-defensins 1-3 was first reported by Nakashima et al, 1993 [11], which has been confirmed by several recent reports.\nCells infected with the HIV-1 virus were added to duplicate series of wells containing varying concentrations of test defensin in 200 ul complete culture medium, and fed after 48 hours with fresh defensin of appropriate quantities. Medium alone was used as the control. The level of HIV-1 replication was measured at day 4 after infection by HIV-1 p24 antigen-capture ELISA. Percent infection was determined as a function of HIV p24 released into the medium in sample wells versus in control wells.", "note": "“Also recorded” adds a separate entry of the source. No end group written: not given here."}
{"substance": "HNP4: Human neutrophil α-defensin 4, 33 amino acid residues; amino acid residues 64-96 of defensin 4 (VCSCRLVFCRRTELRVGNCLIGGVSFTYCCTRV; ends and bridges not checked; cysteine pairing not given here; UniProt P12838 64-96, looked up, fragment)", "values": [{"measurement": "Inhibition of HIV-1 (in words)", "result": "significantly more effective inhibitor than HNPs 1-3; also recorded: significantly and unexpectedly stronger"}]}
